Laboratory results as given in US5767261A, “Lepidopteran GABA gated chloride channel and nucleic acids encoding subunits thereof” (priority 1995, dated 1998).

How the values were obtained:
[1] = system: Heliothis virescens cyclodiene resistant chloride channel; assay: Two-electrode voltage clamp recordings of Xenopus oocytes injected with pIVY12 mRNA; format: cell-based; settings: agonized by GABA
Description: (§1) Messenger RNA was produced from the cDNA template of pIVY12 described in Example I by in vitro transcription with the Ambion mMESSAGE mMACHINE IN VITRO TRANSCRIPTION KIT™ (Ambion, Inc.) The mRNA was injected into oocytes by the following procedure.
(§2) Frogs were anesthetized in a 2 gram/liter solution of 3-amino benzoic acid ethyl ester for thirty minutes, after which oocytes were surgically removed from the abdominal cavity. Follicles were digested by collagenase treatment under sterile conditions by standard methods. Oocytes were injected with 50 nl of mRNA by glass electrodes.
(§3) Following a 24 to 48 hour incubation, two-electrode voltage clamp recordings were made. Recordings were made using a Dagan TEV200 voltage clamp interfaced with a MacLab4 data acquisition system running the MacLab Chart data acquisition/analysis software. Oocytes were positioned under a dissecting scope under constant perfusion with ND-96 standard saline using a Razel syringe perfusion pump, model A99-FY at 93.9 cc/hr. Glass electrodes (A-M Systems, Inc., 1.5 mm×0.86 mm) were filled with 3M KCl and resistance ([…]) was measured to be between 0.7 and 1.5 mega ohms. Both electrodes were inserted into the oocyte at opposite sides, the resting potential was recorded and the voltage clamp turned on. Oocytes were held at a resting potential between -70 and -50 mV. Control responses of GABA were obtained by stopping the perfusion of saline and perfusing with a known concentration of GABA in ND-96 with 0.1% DMSO. The average of several GABA applications was taken as the maximal chloride current for that particular GABA dose. The effect of 10 micromolar GABA on the lepidopteran GABA gated chloride channel expressed in Xenopus oocytes is depicted in FIG. 4. […] In particular, the Heliothis virescens cyclodiene resistant chloride channel is about ten times less sensitive to block by fipronil than the Drosophila Rdl chloride channel.

[2] = molecular target: T1, Drosophila Rdl chloride channel (Drosophila melanogaster, UniProt P25123); settings: 10 micromoles of picrotoxinin; cited from earlier work
T1 sequence (P25123 45-606): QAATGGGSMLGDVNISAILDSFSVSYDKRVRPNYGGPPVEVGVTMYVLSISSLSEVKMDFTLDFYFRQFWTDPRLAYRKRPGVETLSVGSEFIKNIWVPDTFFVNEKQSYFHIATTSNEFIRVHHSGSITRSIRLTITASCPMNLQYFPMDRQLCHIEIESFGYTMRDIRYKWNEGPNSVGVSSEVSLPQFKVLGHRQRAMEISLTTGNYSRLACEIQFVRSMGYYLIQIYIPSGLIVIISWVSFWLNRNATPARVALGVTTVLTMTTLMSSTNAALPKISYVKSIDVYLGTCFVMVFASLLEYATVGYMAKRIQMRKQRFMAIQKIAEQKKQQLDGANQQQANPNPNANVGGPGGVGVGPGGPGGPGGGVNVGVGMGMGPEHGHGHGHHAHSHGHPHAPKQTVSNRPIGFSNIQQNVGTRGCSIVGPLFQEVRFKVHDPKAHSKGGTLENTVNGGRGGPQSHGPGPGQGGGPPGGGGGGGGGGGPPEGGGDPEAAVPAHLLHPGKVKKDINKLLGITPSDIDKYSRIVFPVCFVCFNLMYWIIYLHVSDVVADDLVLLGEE

[3] = molecular target: T2, Heliothis virescens cyclodiene resistant chloride channel (Heliothis virescens, UniProt O18468); assay: Two-electrode voltage clamp recordings of Xenopus oocytes injected with pIVY12 mRNA; format: cell-based; settings: for gross effect of known agonist / antagonist on the channel: similar assays
T2 construct: in vitro transcribed pIVY12 mRNA injected into Xenopus oocytes, homomeric channel
T2 sequence (O18468 30-496): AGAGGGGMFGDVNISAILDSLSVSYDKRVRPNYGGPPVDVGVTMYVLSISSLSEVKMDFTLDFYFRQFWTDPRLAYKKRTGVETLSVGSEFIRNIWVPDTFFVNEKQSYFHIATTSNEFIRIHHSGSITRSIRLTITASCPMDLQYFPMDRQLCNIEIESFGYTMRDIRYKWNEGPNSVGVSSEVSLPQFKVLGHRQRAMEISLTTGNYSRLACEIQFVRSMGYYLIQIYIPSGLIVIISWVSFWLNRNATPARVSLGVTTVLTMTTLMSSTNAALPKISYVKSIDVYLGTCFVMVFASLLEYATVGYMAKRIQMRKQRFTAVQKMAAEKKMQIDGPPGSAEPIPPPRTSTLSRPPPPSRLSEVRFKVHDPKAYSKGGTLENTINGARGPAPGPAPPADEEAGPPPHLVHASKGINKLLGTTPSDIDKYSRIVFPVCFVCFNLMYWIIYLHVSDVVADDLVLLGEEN
Description: as §1, §2, §3

[4] = molecular target: T3, Heliothis virescens cyclodiene resistant GABA gated chloride channel (Heliothis virescens, UniProt O18468); assay: Whole cell voltage clamp recordings of Sf9 cells infected with recombinant baculovirus Elise13; format: cell-based; settings: 1×10^-3 M GABA, thirty hours post infection, FIG. 3
T3 sequence (O18468 30-496): T2 sequence (O18468 30-496)
Excerpt: A BamHI/XhoI DNA fragment from plasmid pIVY12 described in Example 1 containing the complete coding sequence of the Heliothis virescens cyclodiene resistant GABA gated chloride channel subunit was cloned into the baculovirus transfer vector pBacPac8 (Clontech). The resulting vector, pIVY13, contains cDNA encoding the Heliothis virescens cyclodiene resistant GABA gated chloride channel subunit under the control of the polyhedrin promoter. The 8.0 kb vector, PIVY13, consists of the Heliothis sequence of pIVY12 cloned into the BamHI/XhoI site of pBacPac8 and is depicted in FIG. 2. Spodoptera frugiperda 9 (Sf9) cells were cotransfected by pIVY13 and wild type Autographa californica nuclear polyhedrosis virus (AcMNPV) using the lipofectin procedure. In transfer vector pIVY13, flanking AcMNPV sequences allowed recombination with the viral DNA, thus resulting in the transfer of the expression cassette of the Heliothis cDNA and the polyhedrin promoter to the polyhedrin locus of the viral DNA. The recombinant virus thus generated was designated Elise13. Viral stocks of Elise13 were generated by standard procedures described by O'Reilly et al. (1992) Baculovirus Expression Vectors, A Laboratory Manual, W. H. Freeman and Company. Sf9 cells were infected with Elise13 at a multiplicity of infection of 5 plaque forming units (PFU) per cell by standard procedures. […]

[5] = molecular target: T4, Heliothis GABA gated chloride channel (Heliothis virescens, UniProt O18468); assay: Whole cell patch clamp recordings of permanently transformed Drosophila SH1 cell lines (pIVY17); format: cell-based; settings: SH1 cells, induced by 10 μM cadmium chloride for 48 hours, FIG. 7
T4 sequence (O18468 30-496): T2 sequence (O18468 30-496)
Excerpt: To verify that expression of cDNA encoding the GABA gated chloride channel subunit results in production of a functional GABA gated chloride channel, hole cell voltage clamp recordings were made at thirty hours post infection. […] The results presented in this example indicate that expression of DNA encoding a lepidopteran GABA gated chloride channel subunit in Sf9 cells results in a functional GABA gated chloride channel.
Drosophila cell line SH1 was transformed with plasmid pIVY17 using lipofectin obtained from GIBCO-BRL following the manufacturer's instructions. Selection of insect cell transformants was accomplished with hygromycin at a concentration of 200 μg/ml. The Heliothis GABA gated chloride channel expression was induced by 10 μM cadmium chloride added to the growth medium for 48 hours prior to electrophysiological readings. Whole cell voltage patch clamping recordings were performed on a number of cell lines as described in Example III.

In the case of `N#Cc1nn(-c2c(Cl)cc(C(F)(F)F)cc2Cl)c(N)c1[S+]([O-])C(F)(F)F` (stereo not drawn) [fipronil], the “reduction of sensitivity to block relative to Drosophila Rdl chloride channel” value [1] is reported as “about ten”.
For `C=C(C)[C@@H]1[C@H]2OC(=O)[C@@H]1[C@]1(O)C[C@H]3O[C@]34C(=O)O[C@H]2[C@]14C` [picrotoxinin], the “block of Drosophila Rdl” value [2] is given as “nearly complete block”, the “reduction of sensitivity to block relative to Drosophila Rdl chloride channel” value [1] is given as “more than 100 times” and the “block of the Heliothis channel” value ([3]; 10 micromoles of picrotoxinin) is given as “fifty”. For the same compound, the “gross effect of known agonist / antagonist on the channel” value [3] was “exhibited the predicted gross effects”.
In the case of `NCc1cc(=O)[nH]o1` [muscimol], the “gross effect of known agonist / antagonist on the channel” value [3] is reported as “exhibited the predicted gross effects”.
In the case of `NCCCC(=O)O` [GABA, gamma-amino butyric acid], the “functional effect on the GABA gated chloride channel (flux of chloride ion)” value [4] is reported as “exhibits the gross functional effect on the GABA gated chloride channel”, the “functional effect on the GABA gated chloride channel” value ([3]; 10 micromolar GABA, FIG. 4) is reported as “exhibits the predicted gross functional effect” and the “functional effect on the GABA gated chloride channel (flux of chloride ion)” value [5] is reported as “exhibits the predicted gross functional effect”.
